{"source": "paper PMC6934184", "about": "“Selective DNA-PKcs inhibition extends the therapeutic index of localized radiotherapy and chemotherapy” (The Journal of Clinical Investigation, 2019)", "target": "T1, RAF1 (cRAF) Y340D Y341D (Homo sapiens, UniProt P04049, Y340D/Y341D)", "T1 construct": "purchased Thermo Fisher Scientific (Life Technologies) SelectScreen", "T1 sequence (P04049 whole entry Y340D/Y341D)": "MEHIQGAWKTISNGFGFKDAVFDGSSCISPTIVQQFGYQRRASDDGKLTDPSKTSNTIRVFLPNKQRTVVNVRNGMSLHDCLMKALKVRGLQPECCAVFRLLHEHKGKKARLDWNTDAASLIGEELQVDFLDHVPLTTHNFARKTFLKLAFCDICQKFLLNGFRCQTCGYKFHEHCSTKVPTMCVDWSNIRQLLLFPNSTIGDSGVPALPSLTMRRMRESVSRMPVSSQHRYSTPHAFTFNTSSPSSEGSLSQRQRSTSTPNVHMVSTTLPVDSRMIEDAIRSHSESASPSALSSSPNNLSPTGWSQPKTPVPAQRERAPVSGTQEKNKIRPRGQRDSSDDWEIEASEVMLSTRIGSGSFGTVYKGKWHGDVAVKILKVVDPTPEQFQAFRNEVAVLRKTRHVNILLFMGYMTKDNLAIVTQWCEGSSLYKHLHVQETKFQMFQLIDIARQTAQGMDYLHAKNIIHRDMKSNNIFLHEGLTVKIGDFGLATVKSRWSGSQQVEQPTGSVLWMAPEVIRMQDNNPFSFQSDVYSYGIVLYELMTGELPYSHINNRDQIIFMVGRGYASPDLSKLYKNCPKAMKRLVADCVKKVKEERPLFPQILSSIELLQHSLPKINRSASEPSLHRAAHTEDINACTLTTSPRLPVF", "experiment": "SelectScreen Z'LYTE", "format": "biochemical", "settings": "ATP 100 µM", "procedure,_shortened": "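SelectScreen broad panel; activity (Z'LYTE, Adapta) plus binding formats. ATP: Km app for CSF1R Z'LYTE; 10 for CAMK1 Adapta. Readout = % per kinase.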", "data": [{"smiles": "CN(C(=O)CN1CCOCC1)c1ccc2sc3c(-c4cccc5c(=O)cc(N6CC7CCC(C6)O7)oc45)cccc3c2c1", "note": "[NU5455]", "values": [{"measurement": "inhibition at 1 µM", "result": 7.9, "unit": "%"}]}]}
